Source: US20220031690A1, “ANTI-NEURODEGENERATIVE DISEASE AGENT” (Hayashibara Co., Ltd., priority 2018, published 2022)
pIC50: −log10 of the molar value.

Experiments:
PC12-HS cells = assay: Evaluation method A: neurocyte growth acceleration activity (Alamar blue); type: cell-based, rat; settings: for Cell proliferation rate (%): negative control = 100%; for Action on PC12-HS growth acceleration (50 ng/ml): 3 days culture, class of cell proliferation rate vs negative control = 100%; for neurocyte growth acceleration activity (in words): 40, 200 and 1,000 nM, comment on Table 2; for cytotoxicity to PC12-HS cells: concentration range tested
Description: As a model of the nerve cell, the NGF (nerve growth factor) highly sensitive strain of PC12 cell derived from the rat adrenal pheochromocytoma (hereinafter referred to as “PC12-HS cell”; JCRB cell bank, National Research and Development Institute of Health and Nutrition), which has been widely used as a suitable model for research on human neurodegenerative disease, was used. As the test compound, […] of trimethine cyanine dye compounds; NK-5 (Chemical formula 2), NK-36 (Chemical formula 3), NK-44 (Chemical formula 5) and dye compounds represented by Chemical formulae 12 to 18, and NK-6 (Chemical formula 7), which is a monomethine cyanine dye, were selected. In addition, two kinds of ethylene cross-linked dyes (Chemical formulae 19 and 20), 15 kinds of monomethine cyanine dyes (Chemical formulae 21 to 35), and seven kinds of trimethine cyanine dyes (Chemical formulae 36 to 42), which were expected to have a good neurocyte growth acceleration activity and/or neurite-outgrowth promoting activity in the screening disclosed in Patent literature 6, were also re-evaluated for comparison. The Chemical formulae 12 to 42 are shown below.
The cyanine dye compounds subjected to the test (purity 97% by mass or more, synthesized by Hayashibara Co., Ltd., Okayama, Japan) were individually dissolved in DMSO (product number “D8418”, commercialized by SIGMA Corporation) at a concentration of 5 mg/ml, and the solutions were then filtered through DMSO-resistant membrane (“Millex-LGS LLG025SS”, commercialized by Millipore Corporation) and stored at 25° C. in a dark condition. At the time of use, they were further diluted with Dulbecco's Medium (hereinafter, abbreviated as “D-MEM medium”, commercialized by Nissui Pharmaceutical Co., Ltd.) supplemented by 10% by volume of fetal bovine serum (FBS), and subjected to the test.
PC12-HS cells were subjected to tests after frozen stock cultured cells were thawed and cultured with a D-MEM medium supplemented with 10% by volume of FBS (Hereinafter, when the term “culture” is simply used, it means that the cells are statically cultured in an incubator controlled at 37° C. under 5% by volume of CO2 conditions). Cells used in the test were collected using 0.25% by weight of trypsin solution, then diluted with a D-MEM medium supplemented with 10% by volume of FBS (hereinafter referred to as “culture medium”), seeded into collagen-coated 96-well plates (commercialized by Falcon, Tokyo, Japan, “Microtest Plate, Cell Culture, Flat Bottom”) to obtain 5×10^3 cells/100 μl/well, and cultured for 24 hours (hereinafter referred to as “pre-culture”). Then, the above test samples were diluted with a culture medium, and 100 μl of diluted solution of the test compounds were added to each well so that the final concentration of the test compounds in the wells became 50 ng/ml, and the cells were cultured for another three days. On day 3, the cultures supernatant was removed from each well, 200 μl of culture medium containing 10% by volume of Alamar blue reagents (commercialized by Trek Diagnostic Systems Inc., Ohio, USA) were added to each well, and the cells were cultured for 6 hours. After culturing for 6 hours, the cells were measured for fluorescent intensity at a wavelength of 544-590 nm by “FlexStation 3”, a product name of a fluorescent plate reader (commercialized by Japan Molecular Devices Corporation, Tokyo, Japan). […] Measurements were performed for each test compound in triplicate, and the mean values were shown.
The method was based on Experiment 1-1, except the concentrations of the test compounds were set to three doses of 40 nM, 200 nM and 1,000 nM for evaluation method A (neurocyte growth accelerating effect), and two doses of 200 nM and 1,000 nM for evaluation method B (neurite outgrowth promoting effect). […]

[1] = Superoxide scavenging ability (hypoxanthine/xanthine oxidase, ESR); type: biochemical
Method: In this experiment, superoxide generated by reacting hypoxanthine with xanthine oxidase was captured by 5,5-dimethyl-4-phenyl-1-pyrroline N-oxide (hereinafter referred to as “4PDMPO”) as a spin trapping agent, and SOD-like activity by the test compound was measured by ESR.
Specifically, A 50 μl of aqueous solution of hypoxanthine (commercialized by Fuji Film Wako Pure Chemical Industries, Ltd., Tokyo, Japan) prepared to 1 mM was added to a glass test tube. […] The ESR spectrum of the reaction mixture was measured 40 seconds after the addition of xanthine oxidase, and the radical scavenging ability of the test compound was shown as its relative percentage thereof, with the case where no dye compound was added as the radical intensity of 100%. Measurements were performed in triplicate for each of the concentrations of each test compound, and the IC50 was calculated using the average value thereof and shown in Table 6. […]
A reaction solution for measuring various radicals was placed in a flat quartz cell for ESR, and the ESR spectrum was measured by an ESR device (commercialized by JEOL Ltd., trade name “Free radical Controller JES-FR30”). […] The peak height of the ESR spectrum corresponding to each radical at this time was set as 100, and the relative intensity when the solution was added and reacted was obtained and expressed as the radical residual rate (%). […]

[2] = Hydroxyl radical scavenging ability (Fenton reaction, ESR); type: biochemical; settings: 4PDMPO spin trap
Method: In this experiment, hydroxyl radicals generating from diethylenetriamine-N, N, N′, N″-pentaacetic acid (DTPA) by Fenton reaction were trapped with 4PDMPO and measured by ESRs.
Specifically, each of the dye compounds dissolved in DMSO was diluted with purified water to obtain a test compound solution. To a glass test tube, 50 μl of 1 mM hydrogen peroxide solution and 50 μl of 356 mM 4PDMPO were added, followed by 50 μl of the test compound solution. Then, 50 μl of an aqueous solution containing 1 mM FeSO4 and 1 mM DTPA (commercialized by Fuji Film Wako Pure Chemical Industries, Ltd.) was added thereto, mixed with a vortex mixer for 10 seconds, and then reacted for exactly 40 seconds, and the reaction solution was used for ESR measurement. […]
(§1) Detailed conditions of the ESR measurement are described in this section. A reaction solution for measuring various radicals was placed in a flat quartz cell for ESR, and the ESR spectrum was measured by an ESR device (commercialized by JEOL Ltd., trade name “Free radical Controller JES-FR30”). […] The peak height of the ESR spectrum corresponding to each radical at this time was set as 100, and the relative intensity when the solution was added and reacted was obtained and expressed as the radical residual rate (%). […]

[3] = Solubility in distilled water and ethanol (absorbance method); type: physicochemical
Method: A test sample solution, prepared by dissolving each test compound in DMSO to give a concentration of 5 mg/mL, was diluted with 70% (v/v) acetonitrile aqueous solution, and the absorption spectrum at the wavelength range of 400 nm to 900 nm is measured by a spectrophotometer (“FLEX STATION 3”, manufactured by Molecular Devices Japan, Tokyo, Japan). The maximum absorption wavelength of each test compound was determined, then the correlation equation between the absorbance and the concentration at the wavelength was calculated to prepare a calibration curve, and then the following quantitative test was carried out. […] The solubility of each dye compound was measured as follows with reference to the method described in the Japanese Pharmacopoeia. […] After 30 min, 1 mL of the mixture was sampled at 3 times from each test solution, centrifuged at 18,400×g for 5 min, 0.3 mL of the supernatant was collected and admixed with 0.7 mL of acetonitrile to make a total volume of 1.0 mL. Then, the absorbance was measured at the maximum absorption wavelength corresponding to each of the dyes described above, and the concentration of dye was calculated from the calibration curve.

[4] = DPPH radical scavenging ability (absorbance method); type: biochemical
Description: 2,2-Diphenyl-1-picrylhydrazyl (hereinafter referred to as “DPPH”) is a radical with an unpaired electron and has the oxidizing ability of other substances. In addition, because it is stable and easy to handle, it is widely used as an artificial radical-like substance for measuring the antioxidant ability of antioxidants. When DPPH reacts with a substance having antioxidant ability, it loses its own oxidizing ability and its color changes from deep purple to […].
DPPH (commercialized by Tokyo Kasei Kogyo Co., Ltd., Tokyo, Japan) was dissolved in ethanol to prepare a 167 μM DPPH ethanol solution, and 90 μl of the solution was added to each well of the 96-well microplate. A 60 μl each of the test compound serially diluted with ethanol was added to the DPPH ethanol solution, and the mixture was reacted at room temperature for 2 hours, and then the absorbance at 490 nm was measured. […] From those value, the 50% inhibitory concentration of the DPPH radical (Hereinafter, it is referred to as “IC50”) was calculated.

[5] = Peroxyl radical scavenging ability (AAPH, ESR); type: biochemical; settings: DMPO spin trap, AAPH 37° C.
Method: Since the peroxyl radical generated by heating of 2,2′-azobis (2-aminodipropane) dihydrochloride (hereinafter referred to as “AAPH”) is a model of biologically derived radicals, in this experiment, the ability of the test compound to scavenge the peroxyl radical was measured by ESR.
Specifically, each of the dye compounds dissolved in DMSO was diluted with 0.1 M phosphate buffer to prepare a test compound solution. […] Measurements were performed in triplicate for each of the concentrations of each test compound, and the IC50 was calculated using the mean value thereof and shown in Table 6.
as §1

CCN1C=CC(=CC=Cc2cc[n+](CC)c3ccccc23)c2ccccc21.[Br-] [NK-36]
Cell proliferation rate (%) (PC12-HS cells; 1.000 nM): 137.2% | Cell proliferation rate (%) (PC12-HS cells; 40 nM): 123.0% | Action on PC12-HS growth acceleration (50 ng/ml) (PC12-HS cells): ◯ (the relative value of 130% to 169% was judged to be equivalent to NK-4 (“circle”)) | Cell proliferation rate (%) (PC12-HS cells; 200 nM): 115.5% | neurocyte growth acceleration activity (in words) (PC12-HS cells): slightly weaker than that of NK-4 | cytotoxicity to PC12-HS cells (PC12-HS cells): do not show cytotoxicity

CCCCN1C=CC(=CC=Cc2cc[n+](CCCC)c3ccccc23)c2ccccc21.[I-] [NK-44]
Cell proliferation rate (%) (PC12-HS cells; 1.000 nM): 78.5% | cell proliferation relative to the negative control (PC12-HS cells; 40 nM): about 1.9 times | Cell proliferation rate (%) (PC12-HS cells; 40 nM): 193.4% | Action on PC12-HS growth acceleration (50 ng/ml) (PC12-HS cells): ⊚ (170% or higher was judged to be significantly stronger than NK-4 (“double circle”)) | Cell proliferation rate (%) (PC12-HS cells; 200 nM): 154.3% | neurocyte growth acceleration activity (in words) (PC12-HS cells): strongest activity | cytotoxicity to PC12-HS cells (PC12-HS cells): do not show cytotoxicity

CCN1C=CC(=Cc2cc[n+](CC)c3ccccc23)c2ccccc21.[I-] [NK-6]
superoxide radical scavenging ability relative to NK-4 (comparison of IC50 values) [1]: more than twice that of NK-4 | pIC50 ([1]; ESR, 4PDMPO spin trap, read-out: IC50 superoxide radical): 4.16 | pIC50 [2]: 4.21 | Cell proliferation rate (%) (PC12-HS cells; 1.000 nM): 141.9% | Cell proliferation rate (%) (PC12-HS cells; 40 nM): 105.0% | Action on PC12-HS growth acceleration (50 ng/ml) (PC12-HS cells): ◯ (the relative value of 130% to 169% was judged to be equivalent to NK-4 (“circle”)) | Cell proliferation rate (%) (PC12-HS cells; 200 nM): 117.0% | neurocyte growth acceleration activity (in words) (PC12-HS cells): slightly weaker than that of NK-4 | cytotoxicity to PC12-HS cells (PC12-HS cells): do not show cytotoxicity | Solubility Dictilled water ([3]; distilled water, room temperature, 30 min): 93 mg/L | Solubility Ethanol ([3]; ethanol): 645 mg/L | relative DPPH radical scavenging activity based on the IC50 value, relative to NK-4 [4]: about 2 times | pIC50 ([4]; ethanol, room temperature, 2 hours, absorbance at 490 nm): 3.42 | pIC50 [5]: 4.37
